The values below come from ChEMBL document CHEMBL1147106, “Antistaphylococcal activity of DX-619 alone and in combination with vancomycin, teicoplanin, and linezolid assessed by time-kill synergy testing” (2007).

Common to all, as to format: functional
For experiment [1], the system named is Staphylococcus aureus. As to the kind of experiment: Antistaphylococcal activity against vancomycin-intermediate Staphylococcus aureus 555.
The test system of experiment [2] is Staphylococcus aureus. As to the kind of experiment: Antistaphylococcal activity against vancomycin-intermediate Staphylococcus aureus.
Experiment [3] deals with Staphylococcus aureus. As to the kind of experiment: Antistaphylococcal activity against quinolone-resistant Staphylococcus aureus 261.
In experiment [4] the test system is Staphylococcus aureus. As to the kind of experiment: Antistaphylococcal activity against vancomycin-intermediate Staphylococcus aureus 507.
Experiment [5] has as its system Staphylococcus aureus. The experiment can be described thus: Antistaphylococcal activity against quinolone and methicillin-resistant Staphylococcus aureus.
For experiment [6], the system named is Staphylococcus aureus. As to the kind of experiment: Antistaphylococcal activity against quinolone-resistant Staphylococcus aureus 508.
For experiment [7], the system named is Staphylococcus aureus. As to the kind of experiment: Antistaphylococcal activity against quinolone-resistant Staphylococcus aureus 241.
Experiment [8] concerns Staphylococcus aureus. The experiment can be described thus: Antistaphylococcal activity against vancomycin-intermediate Staphylococcus aureus 506.
Experiment [9] deals with Staphylococcus aureus. As to the kind of experiment: Antistaphylococcal activity against quinolone-resistant Staphylococcus aureus 242.
The subject of experiment [10] is Staphylococcus aureus. The experiment can be described thus: Antistaphylococcal activity against vancomycin-intermediate Staphylococcus aureus 508.
For experiment [11], the system named is Staphylococcus aureus. As to the kind of experiment: Antistaphylococcal activity against quinolone-susceptible methicillin-resistant Staphylococcus aureus.
Experiment [12] has as its system Staphylococcus aureus. As to the kind of experiment: Antistaphylococcal activity against vancomycin-resistant Staphylococcus aureus 509.
The subject of experiment [13] is Staphylococcus aureus. The experiment can be described thus: Antistaphylococcal activity against vancomycin-intermediate Staphylococcus aureus 504.
In experiment [14] the test system is Staphylococcus aureus. The experiment can be described thus: Antistaphylococcal activity against vancomycin-resistant Staphylococcus aureus.
Experiment [15] concerns Staphylococcus aureus. As to the kind of experiment: Antistaphylococcal activity against vancomycin-resistant Staphylococcus aureus 510.
In experiment [16] the test system is Staphylococcus aureus. As to the kind of experiment: Antistaphylococcal activity against vancomycin-resistant Staphylococcus aureus 512.
Experiment [17] has as its system Staphylococcus aureus. As to the kind of experiment: Antistaphylococcal activity against methicillin-sensitive Staphylococcus aureus.
Experiment [18] deals with Staphylococcus aureus. As to the kind of experiment: Antistaphylococcal activity against vancomycin-intermediate Staphylococcus aureus 505.

In brackets after ≈: the same amount, converted by molar mass.

As for `COc1c(N2CC[C@@H](C3(N)CC3)C2)ccc2c(=O)c(C(=O)O)cn([C@@H]3C[C@@H]3F)c12`, the MIC amounted to 0.06 µg/mL (≈ 0.149 µM) against Staphylococcus aureus [1]; 0.016 µg/mL (≈ 0.0399 µM) against Staphylococcus aureus [2]; 0.004 µg/mL (≈ 0.00996 µM) in the experiment on Staphylococcus aureus [3]; 0.06 µg/mL (≈ 0.149 µM) against Staphylococcus aureus [4]; 0.06 µg/mL (≈ 0.149 µM) with Staphylococcus aureus [5]; 0.004 µg/mL (≈ 0.00996 µM) with Staphylococcus aureus [6]. For the same compound, the MIC against Staphylococcus aureus [7] amounted to 0.004 µg/mL (≈ 0.00996 µM); in the experiment on Staphylococcus aureus [8], 0.06 µg/mL (≈ 0.149 µM); in the experiment on Staphylococcus aureus [9], 0.004 µg/mL (≈ 0.00996 µM); in the experiment with Staphylococcus aureus [10] it was 0.004 µg/mL (≈ 0.00996 µM); with Staphylococcus aureus [11], 0.008 µg/mL (≈ 0.0199 µM); in the experiment on Staphylococcus aureus [12], 0.06 µg/mL (≈ 0.149 µM). Further, the MIC was determined as 0.06 µg/mL (≈ 0.149 µM) in the experiment with Staphylococcus aureus [13]; 0.125 µg/mL (≈ 0.311 µM) against Staphylococcus aureus [14]; 0.06 µg/mL (≈ 0.149 µM) against Staphylococcus aureus [15]; 0.06 µg/mL (≈ 0.149 µM) against Staphylococcus aureus [16]; 0.004 µg/mL (≈ 0.00996 µM) with Staphylococcus aureus [17]; 0.004 µg/mL (≈ 0.00996 µM) in the experiment with Staphylococcus aureus [18].
`CN[C@H](CC(C)C)C(=O)N[C@H]1C(=O)N[C@@H](CC(N)=O)C(=O)N[C@H]2C(=O)N[C@H]3C(=O)N[C@H](C(=O)N[C@H](C(=O)O)c4cc(O)cc(O)c4-c4cc3ccc4O)[C@H](O)c3ccc(c(Cl)c3)Oc3cc2cc(c3O[C@@H]2O[C@H](CO)[C@@H](O)[C@H](O)[C@H]2O[C@H]2C[C@](C)(N)[C@H](O)[C@H](C)O2)Oc2ccc(cc2Cl)[C@H]1O` [VANCOMYCIN]: the results for the MIC in the experiment with Staphylococcus aureus [14] and against Staphylococcus aureus [15] were 32 µg/mL (≈ 22.1 µM) and 0.05 µg/mL (≈ 0.0345 µM), respectively.
`C[C@H]1COc2c(N3CCN(C)CC3)c(F)cc3c(=O)c(C(=O)O)cn1c23.C[C@H]1COc2c(N3CCN(C)CC3)c(F)cc3c(=O)c(C(=O)O)cn1c23.O` [LEVOFLOXACIN] registered an MIC against Staphylococcus aureus [5] of at least 4 µg/mL.
